Biological target: T1, LdMAPK3 (Leishmania donovani, UniProt A0A3S7WR45)
T1 construct: gene LdCL_100012100; pET-28a BamHI/HindIII, His6-tagged (~48 kDa on gel, tag not reported cut), E. coli BL21(DE3), Ni-NTA
T1 sequence (A0A3S7WR45 1-388): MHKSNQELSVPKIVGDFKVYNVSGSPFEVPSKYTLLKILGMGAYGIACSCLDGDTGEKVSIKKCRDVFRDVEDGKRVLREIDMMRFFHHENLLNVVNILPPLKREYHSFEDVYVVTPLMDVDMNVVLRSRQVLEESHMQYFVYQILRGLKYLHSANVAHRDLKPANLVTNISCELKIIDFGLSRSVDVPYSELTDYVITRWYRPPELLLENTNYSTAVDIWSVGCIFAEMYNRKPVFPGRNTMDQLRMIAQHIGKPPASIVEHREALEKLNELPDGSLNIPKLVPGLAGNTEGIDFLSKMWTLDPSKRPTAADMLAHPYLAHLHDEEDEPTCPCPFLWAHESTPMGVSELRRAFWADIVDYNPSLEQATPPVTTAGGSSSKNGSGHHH
Assay: Kinase-Glo Plus luminescent ATP depletion; Dixon plot
Assay type: biochemical

Molecule `O=c1cc(-c2ccccc2)oc2cc(O)cc(O)c12` [CHY, 5,7-dihydroxyflavone] has a Ki of 8.75 ± 0.11 µM.
Molecule `O=c1c(-c2ccc(O)cc2)coc2cc(O)cc(O)c12` [GEN, genistein] has a Ki of 3.76 ± 0.28 µM.

Source: paper PMC6838069, “Biochemical characterization and chemical validation of Leishmania MAP Kinase-3 as a potential drug target” (Scientific Reports, 2019)
